Measured values: the NIST ThermoML archive (doi:10.1021/je0601457)

Assay: xn = mol fraction of the nth substance listed

Cc1cnccn1 [2-methylpyrazine] + O=C=O
Fluid (supercritical or subcritical phases), Linear displacement technique
Details | mass density [kg/m3]
294.85 K, 5860 kPa, x1 = 0.033 | 869
294.85 K, 6830 kPa, x1 = 0.017 | 749
294.85 K, 7760 kPa, x1 = 0.033 | 904
294.85 K, 8900 kPa, x1 = 0.017 | 777
294.85 K, 13000 kPa, x1 = 0.017 | 821
294.85 K, 13690 kPa, x1 = 0.033 | 969
294.95 K, 2450 kPa, x1 = 0.857 | 935
294.95 K, 3790 kPa, x1 = 0.857 | 942
294.95 K, 6860 kPa, x1 = 0.857 | 947
294.95 K, 11520 kPa, x1 = 0.857 | 950
295.05 K, 3900 kPa, x1 = 0.624 | 948
295.05 K, 7000 kPa, x1 = 0.624 | 952
295.05 K, 9660 kPa, x1 = 0.624 | 956
295.05 K, 14760 kPa, x1 = 0.624 | 965
295.35 K, 5310 kPa, x1 = 0.156 | 908
295.35 K, 7620 kPa, x1 = 0.156 | 910
295.35 K, 9620 kPa, x1 = 0.156 | 911
295.45 K, 5450 kPa, x1 = 0.264 | 901
295.45 K, 7900 kPa, x1 = 0.264 | 911
295.45 K, 12450 kPa, x1 = 0.264 | 926
295.45 K, 16590 kPa, x1 = 0.264 | 934
295.55 K, 6790 kPa, x1 = 0.122 | 998
295.55 K, 8790 kPa, x1 = 0.122 | 1010
295.55 K, 10590 kPa, x1 = 0.122 | 1019
295.55 K, 14410 kPa, x1 = 0.122 | 1036
295.85 K, 7140 kPa, x1 = 0.081 | 779
295.85 K, 9760 kPa, x1 = 0.081 | 781
295.85 K, 13170 kPa, x1 = 0.081 | 781
296.15 K, 7590 kPa, x1 = 0.339 | 964
296.15 K, 10550 kPa, x1 = 0.339 | 969
296.15 K, 16100 kPa, x1 = 0.339 | 976
296.35 K, 6310 kPa, x1 = 0.023 | 607
296.35 K, 6660 kPa, x1 = 0.023 | 614
296.35 K, 8930 kPa, x1 = 0.023 | 642
297.25 K, 5790 kPa, x1 = 0.062 | 854
297.25 K, 7550 kPa, x1 = 0.062 | 873
297.25 K, 9550 kPa, x1 = 0.062 | 894
297.25 K, 12830 kPa, x1 = 0.062 | 914
298.85 K, 6860 kPa, x1 = 0.039 | 804
298.85 K, 8520 kPa, x1 = 0.039 | 831
298.85 K, 11690 kPa, x1 = 0.039 | 873
301.55 K, 7930 kPa, x1 = 0.023 | 578
301.55 K, 10070 kPa, x1 = 0.023 | 604
301.55 K, 11520 kPa, x1 = 0.023 | 620
304.15 K, 6790 kPa, x1 = 0.156 | 795
304.15 K, 8030 kPa, x1 = 0.156 | 905
304.15 K, 10210 kPa, x1 = 0.156 | 906
304.15 K, 12210 kPa, x1 = 0.156 | 911
304.45 K, 7140 kPa, x1 = 0.091 | 913
304.45 K, 7830 kPa, x1 = 0.122 | 970
304.45 K, 8660 kPa, x1 = 0.091 | 927
304.45 K, 10170 kPa, x1 = 0.091 | 940
304.45 K, 10660 kPa, x1 = 0.122 | 989
304.45 K, 13690 kPa, x1 = 0.122 | 1006
304.55 K, 5690 kPa, x1 = 0.264 | 882
304.55 K, 6660 kPa, x1 = 0.264 | 885
304.55 K, 10380 kPa, x1 = 0.264 | 896
304.55 K, 13620 kPa, x1 = 0.264 | 907
305.05 K, 3620 kPa, x1 = 0.624 | 922
305.05 K, 5000 kPa, x1 = 0.624 | 926
305.05 K, 7480 kPa, x1 = 0.624 | 931
305.05 K, 10860 kPa, x1 = 0.624 | 937
305.05 K, 15480 kPa, x1 = 0.624 | 942
307.45 K, 8340 kPa, x1 = 0.339 | 950
307.45 K, 11280 kPa, x1 = 0.339 | 957
307.45 K, 16170 kPa, x1 = 0.339 | 965
307.55 K, 2720 kPa, x1 = 0.857 | 922
307.55 K, 4900 kPa, x1 = 0.857 | 926
307.55 K, 6860 kPa, x1 = 0.857 | 928
307.55 K, 11550 kPa, x1 = 0.857 | 934
309.15 K, 8070 kPa, x1 = 0.122 | 948
309.15 K, 11140 kPa, x1 = 0.122 | 972
309.15 K, 14720 kPa, x1 = 0.122 | 992
309.95 K, 8520 kPa, x1 = 0.017 | 652
309.95 K, 10170 kPa, x1 = 0.017 | 701
309.95 K, 11590 kPa, x1 = 0.017 | 724
311.75 K, 8520 kPa, x1 = 0.033 | 764
311.75 K, 10790 kPa, x1 = 0.033 | 831
311.75 K, 13310 kPa, x1 = 0.033 | 871
311.75 K, 15760 kPa, x1 = 0.033 | 905
315.25 K, 9690 kPa, x1 = 0.039 | 722
315.25 K, 10690 kPa, x1 = 0.039 | 749
315.25 K, 12660 kPa, x1 = 0.039 | 777
315.25 K, 14660 kPa, x1 = 0.039 | 812
315.45 K, 8620 kPa, x1 = 0.062 | 781
315.45 K, 11210 kPa, x1 = 0.062 | 824
315.45 K, 13170 kPa, x1 = 0.062 | 846
315.45 K, 16310 kPa, x1 = 0.062 | 879
316.45 K, 6030 kPa, x1 = 0.624 | 912
316.45 K, 10030 kPa, x1 = 0.624 | 917
316.45 K, 13210 kPa, x1 = 0.624 | 920
316.45 K, 17280 kPa, x1 = 0.624 | 926
317.55 K, 11280 kPa, x1 = 0.091 | 882
317.55 K, 14550 kPa, x1 = 0.091 | 913
317.55 K, 16520 kPa, x1 = 0.091 | 930
317.85 K, 8520 kPa, x1 = 0.156 | 887
317.85 K, 11140 kPa, x1 = 0.156 | 898
317.85 K, 12310 kPa, x1 = 0.156 | 899
317.95 K, 7340 kPa, x1 = 0.264 | 858
317.95 K, 9000 kPa, x1 = 0.264 | 863
317.95 K, 11830 kPa, x1 = 0.264 | 872
317.95 K, 15410 kPa, x1 = 0.264 | 882
320.75 K, 10340 kPa, x1 = 0.122 | 910
320.75 K, 11760 kPa, x1 = 0.122 | 924
320.75 K, 14380 kPa, x1 = 0.122 | 944
322.95 K, 4760 kPa, x1 = 0.857 | 905
322.95 K, 8520 kPa, x1 = 0.857 | 909
322.95 K, 12620 kPa, x1 = 0.857 | 914
322.95 K, 17030 kPa, x1 = 0.857 | 918
325.15 K, 7000 kPa, x1 = 0.339 | 932
325.15 K, 10590 kPa, x1 = 0.339 | 941
325.15 K, 15280 kPa, x1 = 0.339 | 952
326.65 K, 11620 kPa, x1 = 0.039 | 667
326.65 K, 12280 kPa, x1 = 0.039 | 690
326.65 K, 13620 kPa, x1 = 0.039 | 725
327.35 K, 10790 kPa, x1 = 0.091 | 808
327.35 K, 11520 kPa, x1 = 0.091 | 822
327.35 K, 13340 kPa, x1 = 0.091 | 848
327.35 K, 15830 kPa, x1 = 0.091 | 875
328.75 K, 9900 kPa, x1 = 0.156 | 872
328.75 K, 11000 kPa, x1 = 0.156 | 878
328.75 K, 13900 kPa, x1 = 0.156 | 890
329.15 K, 10450 kPa, x1 = 0.017 | 407
329.15 K, 11930 kPa, x1 = 0.017 | 574

Liquid, linear displacement
Details | mass density [kg/m3]
294.85 K, x1 = 0.017 | 721
294.85 K, x1 = 0.033 | 864
294.95 K, x1 = 0.857 | 930
295.05 K, x1 = 0.624 | 944
295.35 K, x1 = 0.156 | 906
295.45 K, x1 = 0.264 | 883
295.55 K, x1 = 0.122 | 947
295.85 K, x1 = 0.081 | 779
296.15 K, x1 = 0.339 | 928
296.35 K, x1 = 0.023 | 599
297.25 K, x1 = 0.062 | 845
298.85 K, x1 = 0.039 | 787
301.55 K, x1 = 0.023 | 549
304.15 K, x1 = 0.156 | 901
304.45 K, x1 = 0.091 | 901
304.45 K, x1 = 0.122 | 954
304.55 K, x1 = 0.264 | 881
305.05 K, x1 = 0.624 | 919
307.45 K, x1 = 0.339 | 937
307.55 K, x1 = 0.857 | 916
309.15 K, x1 = 0.122 | 934
309.95 K, x1 = 0.017 | 621
311.75 K, x1 = 0.033 | 747
315.25 K, x1 = 0.039 | 682
315.45 K, x1 = 0.062 | 766
316.45 K, x1 = 0.624 | 907
317.55 K, x1 = 0.091 | 841
317.85 K, x1 = 0.156 | 885
317.95 K, x1 = 0.264 | 856
320.75 K, x1 = 0.122 | 890
322.95 K, x1 = 0.857 | 900
325.15 K, x1 = 0.339 | 929
326.65 K, x1 = 0.039 | 595
327.35 K, x1 = 0.091 | 794
328.75 K, x1 = 0.156 | 868
